Measurements reported in US7795300B2, “External preparation for skin” (Kuraray Co., Ltd., priority 2003, dated 2010).
Where two headings read alike, the source gives them in different places.

How the values were obtained:
[1] = tested on: Normal human melanocytes; experiment: Inhibitory action on elongation of dendrites; assay type: cell-based
Procedure: According to the following method, inhibitory action on elongation of dendrites was examined using human melanocytes.
(Cell) Normal human melanocytes
(Medium) Basic medium (Medium 154S) to which the following reagents were added
(Reagent) Growth additive: bovine pituitary extract (BPE) (final concentration in the medium: 0.4% v/v), fetus bovine serum (FBS) (final concentration in the medium: 0.5% v/v), human recombinant basic fibroblast growth factor (rFGF-B) (final concentration in the medium: 3 ng/ml), hydrocortisone (final concentration in the medium: 0.18 μg/ml), insulin (final concentration in the medium: 5 μg/ml), transferrin (final concentration in the medium: 5 μg/ml), phorbol 12-myristate 13-acetate (PMA) (final concentration in the medium: 10 ng/ml), heparin (final concentration in the medium: 3 μg/ml), PSA solution (mixed solution at a concentration of penicillin: 50,000 Unit/ml, a concentration of streptomycin: 50 μg/ml, and a concentration of amphotericin B: 12.5 μg/ml. Added 1 ml thereof for 500 ml of the medium.) (Test Method)
Normal human melanocytes were seeded (3,000 cells/well) into a 48-well microplate into which the above medium (198 μl/well) was poured, and cultured at 37° C. After 24 hours, Compound 1 (centaureidin) produced in Production Example 6 was dissolved in dimethyl sulfoxide (DMSO) at final concentrations in the medium of 0 mM (control), 0.1 mM, 0.5 mM, and 1 mM, to obtain sample solutions. To 1 μl of each of those sample solutions, 9 μl of the medium were added. 2 μl of each solution were added into each well of the microplate and culture was continued. After 24 hours from addition of the samples, the length of dendrites was observed.
In the same manner as in Test Example 1, but using extracts produced in Production Examples 1 to 5, sample solutions were prepared so that the final concentration of Compound 1 (centaureidin) in the medium was 0.5 mM, to thereby examine inhibitory action on elongation of dendrites.
In the same manner as in Test Example 1, Compounds 2 to 4 were further examined for inhibitory action on elongation of dendrites under the condition that the final concentration in the medium was 0.5 mM.

[2] = tested on: melanoma B-16 cells; assay type: cell-based; conditions: 48 hours
Procedure: The effect of the combination of a compound (A) and 4-n-butyl resorcinol was studied using melanoma B-16 cells (obtained from Tomita Laboratory at Tohoku University, School of Medicine). MEM (modified Eagle's medium) supplemented with 15% FBS (fetal bovine serum) to which Compound 1 (centaureidin) and 4-butyl resorcinol at various concentrations were added was placed in each well of a microtiter plate. Melanoma B-16 cells were seeded into each well at a dose of 5×10^5 cells/ml and cultured for 48 hours. The cells were collected by means of centrifugal separation and washed twice with the medium, and then the color and number of the cells were judged using scores. Cells cultured without addition of both Compound 1 and 4-n-butyl resorcinol were used as a control, and judgment was carried out based on the following criteria: the color, score 0: the same as the control, score 1: slightly paler than the control, score 2: apparently paler than the control, score 3: cells were almost white, score 4: cells were white; the number of cells, score 0: almost all the cells were dead, score 1: nine-tenth of the cells were dead, score 2: about half the cells were dead, score 3: a few cells were dead, score 4: the number of cells was equal to that of the control. […] Such action is in good accordance with inhibitory action of Compound 1 on dendrites of melanocytes.

[3] = Compounds 2 to 4, final concentration in the medium 0.5 mM, 24 hours
[4] = centaureidin 0 mM, 4-n-butyl resorcinol 0.01 % by mass
[5] = centaureidin 0 mM, 4-n-butyl resorcinol 0.1 % by mass
[6] = centaureidin 0 mM, 4-n-butyl resorcinol 0.5 % by mass
[7] = normal human melanocytes, 24 hours
[8] = centaureidin 0.1 mM, 4-n-butyl resorcinol 0 % by mass
[9] = centaureidin 0.5 mM, 4-n-butyl resorcinol 0 % by mass

## COc1c(O)c(OC)c2oc(-c3cc(O)c(O)c(O)c3)c(OC)c(=O)c2c1O [Compound 2, 5,7-dihydroxy-3,6,8-trimethoxy-2-(3,4,5-trihydroxyphenyl)-4H-1-benzopyran-4-one]
[1]; [3]
  Length of dendrite: 34 ± 19 μm

## CCOc1cc(-c2oc3cc(OC)c(OC)c(OCC)c3c(=O)c2OCC)ccc1OC [Compound 3, 3,5-diethoxy-6,7-dimethoxy-2-(5-ethoxy-4-methoxyphenyl)-4H-1-benzopyran-4-one]
[1]; [3]
  Length of dendrite: 47 ± 28 μm

## CCCCc1ccc(O)cc1O [4-n-butyl resorcinol]
[2]; [4]
  Color of cells: score 1
  Number of cells: score 3
[2]; [5]
  Color of cells: score 3
  Number of cells: score 2
[2]; [6]
  Color of cells: score 4
  Number of cells: score 1

## COc1ccc(-c2oc3cc(O)c(OC)c(O)c3c(=O)c2OC)cc1O [Compound 1, 5,7-dihydroxy-3,6-dimethoxy-2-(5-hydroxy-4-methoxyphenyl)-4H-1-benzopyran-4-one]
[1]; centaureidin 0.1 mM final concentration in medium, 24 hours after addition, control (0 mM) 140 ± 29
  Length of dendrite: 101 ± 15 μm
[1]; centaureidin 0.5 mM final concentration in medium, 24 hours after addition, control (0 mM) 140 ± 29
  Length of dendrite: 26 ± 8 μm
[1]; centaureidin 1 mM final concentration in medium, 24 hours after addition, control (0 mM) 140 ± 29
  Length of dendrite: 24 ± 6 μm
[1]; [7]
  Concentration at which inhibitory action on elongation of dendrites can be confirmed: at least 0.1 mM
  Concentration at which inhibitory action on elongation of dendrites is particularly remarkable: ≥ 0.5 mM
[1]; normal human melanocytes, 24 hours after addition
  Inhibitory action on elongation of dendrites (in words): elongation of dendrites is inhibited
[2]; [8]
  Color of cells: score 1
  Number of cells: score 3
[2]; [9]
  Color of cells: score 1
  Number of cells: score 3
[2]; melanoma B-16 cells cultured with 4-n-butyl resorcinol
  Effect on cell death (in words): inhibits cell death

## COc1cc(OC)c(-c2oc3cc(OC)c(O)c(O)c3c(=O)c2OC)cc1O [Compound 4, 5,6-dihydroxy-3,7-dimethoxy-2-(5-hydroxy-2,4-dimethoxyphenyl)-4H-1-benzopyran-4-one]
[1]; [3]
  Length of dendrite: 31 ± 22 μm
